Results: paper PMC13233820, “Recruitment of Mre11 to recombination sites during meiosis” (Nature Communications, 2026)

How the values were obtained:
Smt3 = biological target: T1, Smt3 (Saccharomyces cerevisiae, UniProt Q12306); experiment: Isothermal titration calorimetry, SIM3 peptides on Smt3; assay type: binding; conditions: 2 mM peptide in syringe, 20 mM NaPi 100 mM NaCl pH 7.5, 10% DMSO, 25 °C
T1 construct: 6xHis (C); made in house; host or cells: E. coli BL21 (DE3)pLysS
Protocol: The syringe contained 2 mM of peptide, while the cell held 150 µM or 300 µM of protein. […] For the ITC titrations, equal amounts of DMSO (10%) were included in both compartments to minimize the heat of dilution. Each titration consisted of a first injection of 0.4 µL, followed by 12-13 injections of 2 µL peptide into the cell, separated by intervals of 120 s. The first injection was discarded during the analysis of the data. The wild-type peptide titration on Smt3 was performed in duplicate. The Microcal LLC ITC200 Origin software was used to fit the data to a single binding site model.

U-[13C,15N] Smt3 = experiment: NMR chemical shift perturbation, SIM3 peptides with Smt3; assay type: binding, Saccharomyces cerevisiae; conditions: 1.2 molar equivalents of peptide, 0.3 mM Smt3, 20 mM sodium phosphate, 20 mM NaCl pH 6.5, 298 K
Protocol: The samples contained 0.3–0.6 mM of U-[^13C,^15N] […] All NMR spectra were acquired at 298 K on a Bruker Avance III HD 800 MHz spectrometer, equipped with a TCI cryoprobe. The NMR data were acquired in TopSpin 3.6 (Bruker) and processed in NMRPipe v.7.5[76] and analyzed in CCPNMR v. 2.4.2[77]. Assignments of Smt3 backbone amide resonances were taken from literature[78] and verified by 3D HNCACB, HN(CO)CACB, and ^15N-edited NOESY-HSQC (mixing time 100 ms) spectra. Further assignments of methyl resonances were obtained from [^1H, ^13C] […] The assigned ^1H, ^13C and ^15N chemical shifts of the free and bound Smt3 have been deposited in the Biological Magnetic Resonance Bank (http://www.bmrb.wisc.edu/) under the accession number 53209.
The NMR binding experiments were performed by an incremental addition of wild-type or mutant SIM peptides (1.2 mM stocks in the working buffer) to 0.3 mM samples of U-[^13C,^15N] Smt3, with the spectral changes monitored in [^1H,^15N] HSQC spectra acquired at each increment and [^1H, ^13C] […] The average chemical shift perturbations (Δδavg) were calculated as Δδavg = (ΔδX^2/n + ΔδH^2/2)^0.5, where ΔδX and ΔδH are the chemical shift changes of the backbone amide nitrogens or methyl carbons (ΔδX) and protons (ΔδH) of Smt3 residues upon addition of 1.2 molar equivalents of SIM peptides, and n = 50 or 9 for the backbone amide and methyl groups, respectively.

T1 sequence (Q12306 whole entry): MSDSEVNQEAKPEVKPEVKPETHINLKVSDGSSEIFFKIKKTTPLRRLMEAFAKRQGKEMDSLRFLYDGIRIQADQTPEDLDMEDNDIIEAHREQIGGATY

Sequence	ITC interaction with Smt3 (Smt3)	Average backbone amide chemical shift perturbation of Smt3 (in words) (U-[13C,15N] Smt3)
ENDAIAVSTDE [mutant SIM3 peptide, SIM3 peptide with I633 and M635 mutated to alanine]	failed to interact with Smt3	
ENDIIMVSTDE [wild-type SIM3 peptide]		induced strong backbone amide chemical shift to Smt3 residues I35, F36, F37, K38, I39 and R46
